This note sets out measurements from PubChem BioAssay (NCI).

Test systems include CCRF-CEM leukemia; NCI-H23 lung; SNB-19 CNS; TK-10 renal; RXF 393 renal; MDA-N; NCI-H522 lung; LOX IMVI melanoma; DU-145 prostate; SK-OV-3 ovarian; SF-268 CNS; HCC-2998 colon; U251 CNS; SNB-75 CNS; EKVX NSCLC; SF-539 CNS; 786-0 renal; HOP-62 NSCLC; A549 NSCLC; SF-295 CNS.
Holding throughout (assay): NCI-60 cell line screen, 48 h

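In this assay, cells in 96-well plates receive the compound at five concentrations for 48 hours. Endpoints are linearly interpolated between the surrounding concentrations. At the TGI there is no net growth.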

`CCN(CC)CCn1c2cc3c(cc2c(=O)c2cccnc21)OCO3`: the TGI in the assay on CCRF-CEM leukemia, in the assay on NCI-H23 lung, in the assay with SNB-19 CNS, in the assay on TK-10 renal, in the assay on RXF 393 renal and in the assay on MDA-N was over 10 µM each time. In addition, the TGI in the assay on NCI-H522 lung, with LOX IMVI melanoma, in the assay on DU-145 prostate, with SK-OV-3 ovarian, in the assay with SF-268 CNS and in the assay on HCC-2998 colon was over 10 µM in each case. In addition, the TGI in the assay with U251 CNS, in the assay on SNB-75 CNS, in the assay on EKVX NSCLC, with SF-539 CNS, in the assay on 786-0 renal and in the assay on HOP-62 NSCLC was over 10 µM each time. Besides, the TGI in the assay with A549 NSCLC and in the assay with SF-295 CNS was over 10 µM throughout.

For `COc1ccc2c(c1)CC[C@@H]1[C@@H]2CC[C@]2(C)C(=O)/C(=C/c3ccncc3)C[C@@H]12`, the TGI in the assay with CCRF-CEM leukemia was over 100 µM; with NCI-H23 lung it was over 100 µM; with SNB-19 CNS, over 100 µM; in the assay on TK-10 renal, over 100 µM; in the assay with RXF 393 renal it was 46.7 µM; in the assay on MDA-N, over 100 µM. In addition, the TGI was 92.1 µM in the assay on NCI-H522 lung; over 100 µM in the assay on LOX IMVI melanoma; over 100 µM in the assay with DU-145 prostate; over 100 µM in the assay on SK-OV-3 ovarian; over 100 µM with SF-268 CNS; 75.4 µM in the assay with HCC-2998 colon. In addition, the TGI in the assay on U251 CNS was over 100 µM; with SNB-75 CNS, over 100 µM; in the assay on EKVX NSCLC, over 100 µM; in the assay on SF-539 CNS, 55.1 µM; in the assay on 786-0 renal, over 100 µM; in the assay on HOP-62 NSCLC it was 54.9 µM. Moreover, the TGI was over 100 µM in the assay on A549 NSCLC and 66.6 µM in the assay on SF-295 CNS.

Regarding `CCCNC(C#N)c1ccc(OCCCCCCCCCCOc2ccc(C(C#N)NCCC)cc2)cc1` (stereo not given), the TGI in the assay on CCRF-CEM leukemia was 43.7 µM; in the assay with NCI-H23 lung it was over 100 µM; with SNB-19 CNS, over 100 µM; with TK-10 renal, 69.2 µM; in the assay with RXF 393 renal, 65.1 µM; in the assay on MDA-N, over 100 µM. Also, the TGI was over 100 µM with NCI-H522 lung; 34.6 µM with LOX IMVI melanoma; over 100 µM with DU-145 prostate; over 100 µM with SK-OV-3 ovarian; over 100 µM in the assay with SF-268 CNS; over 100 µM in the assay with HCC-2998 colon. Also, the TGI in the assay on U251 CNS was 42.7 µM; in the assay with SNB-75 CNS, over 100 µM; in the assay on EKVX NSCLC, over 100 µM; with SF-539 CNS, over 100 µM; in the assay on 786-0 renal, over 100 µM; with HOP-62 NSCLC, over 100 µM. Moreover, the TGI in the assay with A549 NSCLC and in the assay on SF-295 CNS was over 100 µM each time.

For the molecule `CCOC(=O)CCC(NC(=O)c1ccc(Nc2nc3ccccc3n3cccc23)cc1)C(=O)OCC` (stereo not given), the TGI with CCRF-CEM leukemia is over 100 µM; with NCI-H23 lung, over 100 µM; with SNB-19 CNS, over 100 µM; with TK-10 renal it was 64.7 µM; in the assay on RXF 393 renal, 32.8 µM; in the assay with MDA-N, over 100 µM. The TGI is 60 µM in the assay with NCI-H522 lung; over 100 µM with LOX IMVI melanoma; 97.7 µM in the assay with DU-145 prostate; 50.1 µM with SK-OV-3 ovarian; over 100 µM in the assay on SF-268 CNS; over 100 µM with HCC-2998 colon. In addition, the TGI in the assay with U251 CNS is 62.3 µM; in the assay with SNB-75 CNS it was 53.6 µM; in the assay on EKVX NSCLC, over 100 µM; in the assay with SF-539 CNS it was 34.6 µM; with 786-0 renal, 33.2 µM; in the assay with HOP-62 NSCLC it was 54.2 µM. Besides, the TGI with A549 NSCLC was over 100 µM; with SF-295 CNS, 71.1 µM.

Consider `c1ccc(N=c2sc3ccccc3sc2=Nc2ccccc2)cc1`, for which the TGI is over 100 µM in the assay on CCRF-CEM leukemia; 3.82 µM with NCI-H23 lung; 16.7 µM in the assay on SNB-19 CNS; 12.9 µM with TK-10 renal; 3.49 µM in the assay with RXF 393 renal; 3.05 µM in the assay with MDA-N. Further, the TGI with NCI-H522 lung came out at 2.95 µM; in the assay on LOX IMVI melanoma it was 3.43 µM; in the assay on DU-145 prostate it was 17.1 µM; with SK-OV-3 ovarian, 11.8 µM; in the assay on SF-268 CNS, 10.2 µM; in the assay on HCC-2998 colon it was 3.24 µM. Further, the TGI in the assay on U251 CNS was found to be 3.3 µM; with SNB-75 CNS, 11.5 µM; in the assay on EKVX NSCLC, 7.26 µM; with SF-539 CNS it was 3.42 µM; with 786-0 renal, 3.14 µM; with HOP-62 NSCLC, 15.3 µM. Further, the TGI with A549 NSCLC came to 9.1 µM; with SF-295 CNS, 12.5 µM.
